Patent publication US10696693B2, “Fused imidazole derivatives as TGF-beta inhibitors” (Rigel Pharmaceuticals, Inc., priority 2014, dated 2020)
Where two headings read alike, the source gives them in different places.

What was measured:
TGF-β = experiment: AlphaScreen SureFire p-SMAD3 (Ser423/425) assay, TGF-β-stimulated cells; type: cell-based; details: Mus musculus
Summary of the method: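 The p-SMAD-3 (Ser423/425) SureFire assay measured phosphorylation of endogenous SMAD-3 in cell lysates. Cells were plated overnight in collagen-coated plates, exposed to three-fold serially diluted compounds for about 10 minutes, then stimulated with TGFβ. Lysates (5 μL) received acceptor bead mix for 2 hours, then donor beads for 1½ hours before AlphaScreen reading.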

GDF8 = experiment: AlphaScreen SureFire p-SMAD3 (Ser423/425) assay, GDF8-stimulated cells; type: cell-based; details: Mus musculus
Summary of the method: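 A SureFire AlphaScreen assay measured phosphorylation of endogenous SMAD-3 at Ser423/425 in cell lysates. Cells were treated with three-fold serially diluted compounds in DMSO for about 10 minutes, then stimulated with GDF8. After medium removal, cells were lysed in 1× Lysis Buffer (about 25 μL) with gentle shaking for 5-10 minutes.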

[1] = p-SMAD3 (Ser423/425) AlphaScreen in cell lysate, MPC-11, TGF-β stimulation, read-out: TGF-β: inhibition of TGF-β signaling, TGF-β pSMAD (MPC-11)
[2] = MPC-11, p-SMAD3 (Ser423/425) AlphaScreen in cell lysate, MPC11, GDF8 stimulation, read-out: GDF8: inhibition of GDF8 signaling, GDF pSMAD (MPC11)
[3] = MPC-11, read-out: TGF-β: inhibition of TGF-β signaling, TGF-β pSMAD (MPC-11), p-SMAD3 (Ser423/425) AlphaScreen in cell lysate, TGF-β stimulation
[4] = MPC-11, read-out: GDF8: inhibition of GDF8 signaling, GDF pSMAD (MPC11), p-SMAD3 (Ser423/425) AlphaScreen in cell lysate, GDF8 stimulation

For `Cc1cc(-c2nc3n(c2-c2ccc4cn[nH]c4c2)CCC3)ccc1F` [Compound 177, 6-(2-(4-fluoro-3-methylphenyl)-6,7-dihydro-5H-pyrrolo[1,2-a]imidazol-3-yl)-1H-indazole], the IC50 (TGF-β; [1]) was 100 to 1000 nM and the IC50 (GDF8; [2]) was 50 to 100 nM.
Molecule `Fc1ccc(-c2nc3n(c2-c2ccc4nccnc4c2)CCC3)cc1` [Compound 178, 6-(2-(4-fluorophenyl)-6,7-dihydro-5H-pyrrolo[1,2-a]imidazol-3-yl)quinoxaline] has an IC50 (TGF-β; [3]) of over 1000 nM and an IC50 (GDF8; [4]) of 100 to 1000 nM.
Work on `Cc1cc(-c2nc3n(c2-c2ccc4nccnc4c2)CCC3)ccc1F` [Compound 179, 6-(2-(4-fluoro-3-methylphenyl)-6,7-dihydro-5H-pyrrolo[1,2-a]imidazol-3-yl)quinoxaline] yielded an IC50 (TGF-β; [1]) of 100 to 1000 nM and an IC50 (GDF8; [2]) of 50 to 100 nM.
Molecule `Cc1cccc(-c2nc3n(c2-c2ccc4nccnc4c2)CCC3)c1` [Compound 180, 6-(2-(m-tolyl)-6,7-dihydro-5H-pyrrolo[1,2-a]imidazol-3-yl)quinoxaline] has an IC50 (TGF-β; [1]) of 100 to 1000 nM and an IC50 (GDF8; [2]) of under 50 nM.
`FC(F)(F)c1cccc(-c2nc3n(c2-c2ccc4[nH]ncc4c2)CCC3)c1` [Compound 181, 5-(2-(3-(trifluoromethyl)phenyl)-6,7-dihydro-5H-pyrrolo[1,2-a]imidazol-3-yl)-1H-indazole] gave an IC50 (TGF-β; [1]) of 100 to 1000 nM and an IC50 (GDF8; [2]) of 50 to 100 nM.
With `FC(F)(F)c1cccc(-c2nc3n(c2-c2ccc4cn[nH]c4c2)CCC3)c1` [Compound 182, 6-(2-(3-(trifluoromethyl)phenyl)-6,7-dihydro-5H-pyrrolo[1,2-a]imidazol-3-yl)-1H-indazole] the IC50 (TGF-β; [1]) was 100 to 1000 nM and the IC50 (GDF8; [2]) was 50 to 100 nM.
`FC(F)(F)c1cccc(-c2nc3n(c2-c2ccc4ncsc4c2)CCC3)c1` [Compound 183, 6-(2-(3-(trifluoromethyl)phenyl)-6,7-dihydro-5H-pyrrolo[1,2-a]imidazol-3-yl)benzo[d]thiazole] was tested, and the IC50 (TGF-β; [1]) was 100 to 1000 nM and the IC50 (GDF8; [2]) was 50 to 100 nM.
In the case of `FC(F)(F)c1cccc(-c2nc3n(c2-c2ccc4nccnc4c2)CCC3)c1` [Compound 184, 6-(2-(3-(trifluoromethyl)phenyl)-6,7-dihydro-5H-pyrrolo[1,2-a]imidazol-3-yl)quinoxaline], the IC50 (TGF-β; [1]) is reported as 100 to 1000 nM and the IC50 (GDF8; [2]) is reported as 50 to 100 nM.
`COc1cccc(-c2nc3n(c2-c2ccc4[nH]ncc4c2)CCC3)c1` [Compound 185, 5-(2-(3-methoxyphenyl)-6,7-dihydro-5H-pyrrolo[1,2-a]imidazol-3-yl)-1H-indazole] was tested, and the IC50 (TGF-β; [3]) was 100 to 1000 nM and the IC50 (GDF8; [4]) was 100 to 1000 nM.
In the case of `COc1cccc(-c2nc3n(c2-c2ccc4cn[nH]c4c2)CCC3)c1` [Compound 186, 6-(2-(3-methoxyphenyl)-6,7-dihydro-5H-pyrrolo[1,2-a]imidazol-3-yl)-1H-indazole], the IC50 (TGF-β; [3]) is reported as 100 to 1000 nM and the IC50 (GDF8; [4]) is reported as 50 to 100 nM.
In the case of `COc1cccc(-c2nc3n(c2-c2ccc4ncsc4c2)CCC3)c1` [Compound 187, 6-(2-(3-methoxyphenyl)-6,7-dihydro-5H-pyrrolo[1,2-a]imidazol-3-yl)benzo[d]thiazole], the IC50 (TGF-β; [3]) is reported as 100 to 1000 nM and the IC50 (GDF8; [4]) is reported as 50 to 100 nM.
In the case of `COc1cccc(-c2nc3n(c2-c2ccc4nccnc4c2)CCC3)c1` [Compound 188, 6-(2-(3-methoxyphenyl)-6,7-dihydro-5H-pyrrolo[1,2-a]imidazol-3-yl)quinoxaline], the IC50 (TGF-β; [3]) is reported as 100 to 1000 nM and the IC50 (GDF8; [4]) is reported as 100 to 1000 nM.
`Clc1cccc(-c2nc3n(c2-c2ccc4[nH]ncc4c2)CCC3)c1` [Compound 189, 5-(2-(3-chlorophenyl)-6,7-dihydro-5H-pyrrolo[1,2-a]imidazol-3-yl)-1H-indazole] gave an IC50 (TGF-β; [3]) of 100 to 1000 nM and an IC50 (GDF8; [4]) of 50 to 100 nM.
`Clc1cccc(-c2nc3n(c2-c2ccc4cn[nH]c4c2)CCC3)c1` [Compound 190, 6-(2-(3-chlorophenyl)-6,7-dihydro-5H-pyrrolo[1,2-a]imidazol-3-yl)-1H-indazole] was tested, and the IC50 (TGF-β; [3]) was 50 to 100 nM and the IC50 (GDF8; [4]) was under 50 nM.
With `Clc1cccc(-c2nc3n(c2-c2ccc4ncsc4c2)CCC3)c1` [Compound 191, 6-(2-(3-chlorophenyl)-6,7-dihydro-5H-pyrrolo[1,2-a]imidazol-3-yl)benzo[d]thiazole] the IC50 (TGF-β; [3]) was 100 to 1000 nM and the IC50 (GDF8; [4]) was under 50 nM.
For `Clc1cccc(-c2nc3n(c2-c2ccc4nccnc4c2)CCC3)c1` [Compound 192, 6-(2-(3-chlorophenyl)-6,7-dihydro-5H-pyrrolo[1,2-a]imidazol-3-yl)quinoxaline], the IC50 (TGF-β; [3]) was 100 to 1000 nM and the IC50 (GDF8; [4]) was 50 to 100 nM.
`Fc1cccc(-c2nc3n(c2-c2ccc4[nH]ncc4c2)CCC3)c1` [Compound 193, 5-(2-(3-fluorophenyl)-6,7-dihydro-5H-pyrrolo[1,2-a]imidazol-3-yl)-1H-indazole] showed an IC50 (TGF-β; [3]) of over 1000 nM and an IC50 (GDF8; [4]) of 100 to 1000 nM.
`Fc1cccc(-c2nc3n(c2-c2ccc4cn[nH]c4c2)CCC3)c1` [Compound 194, 6-(2-(3-fluorophenyl)-6,7-dihydro-5H-pyrrolo[1,2-a]imidazol-3-yl)-1H-indazole] showed an IC50 (TGF-β; [3]) of over 1000 nM and an IC50 (GDF8; [4]) of 100 to 1000 nM.
`Fc1cccc(-c2nc3n(c2-c2ccc4ncsc4c2)CCC3)c1` [Compound 195, 6-(2-(3-fluorophenyl)-6,7-dihydro-5H-pyrrolo[1,2-a]imidazol-3-yl)benzo[d]thiazole] showed an IC50 (TGF-β; [3]) of 100 to 1000 nM and an IC50 (GDF8; [4]) of 100 to 1000 nM.
With `Fc1cccc(-c2nc3n(c2-c2ccc4nccnc4c2)CCC3)c1` [Compound 196, 6-(2-(3-fluorophenyl)-6,7-dihydro-5H-pyrrolo[1,2-a]imidazol-3-yl)quinoxaline] the IC50 (TGF-β; [3]) was over 1000 nM and the IC50 (GDF8; [4]) was 100 to 1000 nM.
In the case of `Fc1ccccc1-c1nc2n(c1-c1ccc3[nH]ncc3c1)CCC2` [Compound 197, 5-(2-(2-fluorophenyl)-6,7-dihydro-5H-pyrrolo[1,2-a]imidazol-3-yl)-1H-indazole], the IC50 (TGF-β; [1]) is reported as over 1000 nM and the IC50 (GDF8; [2]) is reported as 100 to 1000 nM.
For `Fc1ccccc1-c1nc2n(c1-c1ccc3cn[nH]c3c1)CCC2` [Compound 198, 6-(2-(2-fluorophenyl)-6,7-dihydro-5H-pyrrolo[1,2-a]imidazol-3-yl)-1H-indazole], the IC50 (TGF-β; [1]) was over 1000 nM and the IC50 (GDF8; [2]) was over 1000 nM.
`Fc1ccccc1-c1nc2n(c1-c1ccc3ncsc3c1)CCC2` [Compound 199, 6-(2-(2-fluorophenyl)-6,7-dihydro-5H-pyrrolo[1,2-a]imidazol-3-yl)benzo[d]thiazole] showed an IC50 (TGF-β; [1]) of 100 to 1000 nM and an IC50 (GDF8; [2]) of 100 to 1000 nM.
Molecule `Fc1ccccc1-c1nc2n(c1-c1ccc3nccnc3c1)CCC2` [Compound 200, 6-(2-(2-fluorophenyl)-6,7-dihydro-5H-pyrrolo[1,2-a]imidazol-3-yl)quinoxaline] has an IC50 (TGF-β; [1]) of over 1000 nM and an IC50 (GDF8; [2]) of 100 to 1000 nM.
`Fc1ccc(-c2nc3n(c2-c2ccc4[nH]ncc4c2)CCC3)c(F)c1` [Compound 201, 5-(2-(2,4-difluorophenyl)-6,7-dihydro-5H-pyrrolo[1,2-a]imidazol-3-yl)-1H-indazole] was tested, and the IC50 (TGF-β; [1]) was 100 to 1000 nM and the IC50 (GDF8; [2]) was under 50 nM.
In the case of `Fc1ccc(-c2nc3n(c2-c2ccc4cn[nH]c4c2)CCC3)c(F)c1` [Compound 202, 6-(2-(2,4-difluorophenyl)-6,7-dihydro-5H-pyrrolo[1,2-a]imidazol-3-yl)-1H-indazole], the IC50 (TGF-β; [1]) is reported as 100 to 1000 nM and the IC50 (GDF8; [2]) is reported as 50 to 100 nM.
Molecule `Fc1ccc(-c2nc3n(c2-c2ccc4ncsc4c2)CCC3)c(F)c1` [Compound 203, 6-(2-(2,4-difluorophenyl)-6,7-dihydro-5H-pyrrolo[1,2-a]imidazol-3-yl)benzo[d]thiazole] has an IC50 (TGF-β; [1]) of 100 to 1000 nM and an IC50 (GDF8; [2]) of under 50 nM.
Work on `Fc1ccc(-c2nc3n(c2-c2ccc4nccnc4c2)CCC3)c(F)c1` [Compound 204, 6-(2-(2,4-difluorophenyl)-6,7-dihydro-5H-pyrrolo[1,2-a]imidazol-3-yl)quinoxaline] yielded an IC50 (TGF-β; [1]) of 100 to 1000 nM and an IC50 (GDF8; [2]) of 100 to 1000 nM.
